Assays:
[1] = tested on: human cell line NCI-H526 xenograft; experiment: N-Myc-driven mouse xenograft model, NCI-H526, compound 210 oral; type: in vivo
Myc target genes = experiment: RNAseq ssGSEA of Myc target genes in NCI-H1155 and NCI-H2023; type: cell-based; details: high N-Myc expressing cells, 0.1 μM and 1 μM
Method: A High N-Myc expressing NSCLC cell lines ([…]) and a low N-Myc expressing NSCLC cell lines (NCI-H2023) were treated with Compound 345 in culture. Cells were treated with increasing concentrations of the compound (0.0; 0.03; 0.3; 3 μM), cells were withdrawn from the culture at time points of 0, 2, and 6 hours, lysates were prepared, SDS-PAGE and immunoblotting was performed, and transfer membranes were probed for GSPT1, N-Myc, and Tubulin as a loading control (N-Myc was not probed in the NCI-2023 experiment). […] For the same cell lines, RNAseq followed by single sample gene set enrichment analysis (ssGSEA) was performed at six hours and 24 hours after treatment with Compound 345. […]
Transcriptomics experiment in NCI-H1155 and NCI-H2023 NSCLC lines: NCI-H1155 and NCI-H2023 were typically seeded in a 6 well plate (0.5×10^6 NCI-H1155 cells/mL; 0.3×10^6 NCI-H2023 cells/mL; 2 ml/well) and incubated overnight. […] Total RNA yields and quality were measured using the DeNovix DS-11 Spectrophotometer. […] Library yields were measured using a QuBit 4 fluorometer ([…], Q33238) and sizes were measured using a Tapestation 4150 (Agilent, G2992AA) and screentape (Agilent, 5067-5562). […] The modulation of Myctarget gene expression upon treatment with MRT-2359 was analyzed in RNAseq profiles of both Myc-driven (NCI-Hi 155) and non-Mycdriven (NCI-H2023) cell lines. […]

[2] = tested on: NCI-1155 NSCLC cell line derived xenograft; experiment: NCI-H1155 NSCLC CDX efficacy study (Compound 345); type: in vivo, immunodeficient mice; details: oral daily 1, 3 and 10 mg/kg
Method: Cell line derived xenograft (CDX) models were produced for the NCI-1155 NSCLC cell line in immunodeficient mice. Oral dosing of Compound 345 was performed daily at doses of 1 mg/kg, 3 mg/kg, and 10 mg/kg with a no-drug vehicle control. Tumor volumes were measured (mm^3) at days 3, 7, 10, 14, and 17.
In vivo efficacy study: NCI-H1155, MM1 S, WSU-DLCL2, DOHH-2 cells were maintained in vitro in individual medium and conditions as recommended by the providers and incubated at 37° C. in an atmosphere of 5% CO2 in air. 0.5 million (NCI-H1155), 10 million (MM1S) or 5 million (WSU-DLCL2 and DOHH-2) cells were resuspended in typically 0.1-0.2 mL of PBS with Matrigel (50:50) and were inoculated into 6-8 weeks old BALB/c nude female (NCI-H115, WSU-DLCL2), NOD/SCID (MM1S) or CB-17SCID (DOHH-2) mice and allowed to grow to 150-200 mm3 in size. Mice were dosed orally (PO) and daily (QD) with either vehicle or Compound 345 typically at 1.0 mg/kg, 3.0 mg/kg and 10 mg/kg. […] Tumor volumes were measured at least twice weekly during the treatment period using a caliper and the volume was expressed in mm3 using the formula: V=0.5 a×b2 where a and b were the long and short diameters of the tumor, respectively. […] Data are expressed as the mean±SEM. All data was analyzed using GraphPad Prism 8.1.2 (GraphPad).

| SMILES | tumor size ([1]; 3 mg/kg once daily) | tumor size ([1]; 6 mg/kg, five days on and nine days off) | body weight ([1]; oral administration) | tumor growth ([1]; oral administration) | ssGSEA score, Myc gene set (Myc target genes; 24 hours) | ssGSEA score, Myc gene set (Myc target genes; six hours) | tumor volume [2] |
| --- | --- | --- | --- | --- | --- | --- | --- |
| Cc1ccc(NC(=O)OCc2ccc3c(c2)C(=O)N(C2CCC(=O)NC2=O)C3)cc1Cl (stereo not shown) [Compound 210] | tumor size decreased and remained so until the end of the study | tumor size decreased and remained so until the end of the study | no body weight loss observed | tumor growth inhibition | – | – | – |
| O=C1CCC(N2Cc3ccc(COC(=O)Nc4cc(OC(F)(F)F)ccc4F)cc3C2=O)C(=O)N1 (stereo not shown) [Compound 345, (2-(2,6-dioxopiperidin-3-yl)-3-oxoisoindolin-5-yl)methyl(2-fluoro-5-(trifluoromethoxy)phenyl)carbamate] | – | – | – | – | significant downregulation of the Myc gene set | modest down regulation of the Myc gene set | anti-tumor activity and regression |

From patent US20240261274A1, “TREATMENT OF MYC-DRIVEN CANCERS WITH GSPT1 DEGRADERS” (MONTE ROSA THERAPEUTICS, INC., priority 2021, published 2024)
